# From ChEMBL document CHEMBL1201862, “PubChem BioAssay data set” (2004)
# Calls of active or inactive are those of the source.
# Tests used:
# [1] = molecular target: Melanocortin receptor 4 (Homo sapiens, UniProt P32245); type: functional, cell-based;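 further: Cell-based assay with luminescence read-out, confirmatory dose-response testing for agonist activity of biased ligands at MC4R; human U2OS cells with tagged receptor and beta-arrestin; potency of agonists that increase receptor coupling to beta-arrestin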
# Melanocortin receptor 4, sequence (P32245 whole entry): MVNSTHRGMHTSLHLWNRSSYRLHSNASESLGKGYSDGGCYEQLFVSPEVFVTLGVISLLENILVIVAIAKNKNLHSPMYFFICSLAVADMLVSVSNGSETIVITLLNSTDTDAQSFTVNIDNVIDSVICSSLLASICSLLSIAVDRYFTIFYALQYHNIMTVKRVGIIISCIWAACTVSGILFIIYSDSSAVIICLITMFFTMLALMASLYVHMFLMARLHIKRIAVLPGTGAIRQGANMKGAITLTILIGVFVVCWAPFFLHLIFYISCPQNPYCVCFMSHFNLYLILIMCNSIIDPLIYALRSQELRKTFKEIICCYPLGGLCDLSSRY
# [2] = molecular target: T1, Aryl hydrocarbon receptor (Homo sapiens, UniProt P35869); conditions: Potency;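 further: confirmatory quantitative high-throughput screen measuring activation of the AhR signaling pathway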
# T1 sequence (P35869 whole entry): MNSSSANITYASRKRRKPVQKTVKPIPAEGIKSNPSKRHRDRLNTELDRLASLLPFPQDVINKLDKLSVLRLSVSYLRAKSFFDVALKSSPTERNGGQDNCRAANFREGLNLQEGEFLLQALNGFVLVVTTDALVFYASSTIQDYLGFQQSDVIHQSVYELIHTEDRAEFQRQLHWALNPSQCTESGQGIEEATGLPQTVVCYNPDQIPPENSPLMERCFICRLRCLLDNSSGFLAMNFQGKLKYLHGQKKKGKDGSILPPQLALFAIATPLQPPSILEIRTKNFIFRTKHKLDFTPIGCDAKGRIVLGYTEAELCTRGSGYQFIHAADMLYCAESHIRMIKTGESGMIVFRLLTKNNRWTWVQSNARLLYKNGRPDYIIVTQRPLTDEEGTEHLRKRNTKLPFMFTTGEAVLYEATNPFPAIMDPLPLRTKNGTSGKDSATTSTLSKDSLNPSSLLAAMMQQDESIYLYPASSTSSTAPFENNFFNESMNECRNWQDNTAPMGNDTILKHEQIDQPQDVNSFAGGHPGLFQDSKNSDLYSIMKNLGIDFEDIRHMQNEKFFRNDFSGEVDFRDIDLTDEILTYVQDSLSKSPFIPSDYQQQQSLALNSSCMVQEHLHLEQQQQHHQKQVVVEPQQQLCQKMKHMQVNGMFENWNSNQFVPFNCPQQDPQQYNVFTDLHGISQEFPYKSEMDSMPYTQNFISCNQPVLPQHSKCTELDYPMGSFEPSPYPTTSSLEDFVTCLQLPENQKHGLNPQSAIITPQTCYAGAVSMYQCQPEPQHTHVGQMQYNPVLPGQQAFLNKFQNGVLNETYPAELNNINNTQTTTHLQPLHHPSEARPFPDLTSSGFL
# [3] = inhibitors of intracellular T. cruzi replication, confirmation, NIH3T3 host cells, beta-gal luminescence (AID 2044); type: functional, cell-based;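 further: intracellular parasites grown in NIH/3T3 mouse fibroblasts as host cells; luminescent beta-galactosidase reporter signal from transgenic T. cruzi replicating inside host cells; inhibitors lower the luminescence signal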
# [4] = cytotoxicity toward NIH3T3 fibroblasts, dose response, counter-screen, cell-based, ATP luminescence, mouse fibroblasts (AID 2010); type: functional;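 further: cells exposed to compound for about 90 hours before reading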
# [5] = test system: Vero; test: cells; type: functional; conditions: Chlorocebus sabaeus
# [6] = AlphaScreen signal interference compounds, dose response, artefact control for ARNT-TACC3 interaction inhibitor project, biochemical, luminescence, cherry-pick (AID 651705); type: functional;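 further: AlphaScreen bead proximity signal that flags compounds interfering with the detection technology; potency reflects signal decrease which marks the compound as an assay artifact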
# [7] = ARNT/TACC3 interaction disruptors, potency, confirmation, biochemical, AlphaScreen, cherry-picked samples (AID 651703); type: functional, Homo sapiens;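 further: His-tagged ARNT PAS-B domain paired with GST-TACC3 E629A dimer coactivator fragment; potency of inhibitors that break up the complex and lower AlphaScreen signal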
# [8] = molecular target: T2, DNA repair protein RAD52 homolog (Homo sapiens, UniProt P43351); type: functional, biochemical
# T2 sequence (P43351 whole entry): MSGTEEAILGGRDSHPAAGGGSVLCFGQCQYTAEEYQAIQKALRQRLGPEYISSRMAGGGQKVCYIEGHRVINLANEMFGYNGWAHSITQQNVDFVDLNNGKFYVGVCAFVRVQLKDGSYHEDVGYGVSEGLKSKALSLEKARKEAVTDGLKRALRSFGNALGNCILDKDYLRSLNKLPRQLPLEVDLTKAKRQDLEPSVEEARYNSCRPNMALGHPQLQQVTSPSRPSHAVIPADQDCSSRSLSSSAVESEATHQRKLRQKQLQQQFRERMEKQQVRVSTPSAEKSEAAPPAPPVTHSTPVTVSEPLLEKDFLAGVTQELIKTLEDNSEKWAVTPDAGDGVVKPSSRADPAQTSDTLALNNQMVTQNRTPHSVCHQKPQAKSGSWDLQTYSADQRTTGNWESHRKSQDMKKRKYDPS
# [9] = molecular target: T3, Leucine aminopeptidase (Plasmodium falciparum 3D7, UniProt Q8IL11); test: P. falciparum M17LAP inhibitors, primary screen, biochemical, fluorogenic H-Leu-NHMec substrate, 1536-well (AID 1619); type: functional
# T3 sequence (Q8IL11 whole entry): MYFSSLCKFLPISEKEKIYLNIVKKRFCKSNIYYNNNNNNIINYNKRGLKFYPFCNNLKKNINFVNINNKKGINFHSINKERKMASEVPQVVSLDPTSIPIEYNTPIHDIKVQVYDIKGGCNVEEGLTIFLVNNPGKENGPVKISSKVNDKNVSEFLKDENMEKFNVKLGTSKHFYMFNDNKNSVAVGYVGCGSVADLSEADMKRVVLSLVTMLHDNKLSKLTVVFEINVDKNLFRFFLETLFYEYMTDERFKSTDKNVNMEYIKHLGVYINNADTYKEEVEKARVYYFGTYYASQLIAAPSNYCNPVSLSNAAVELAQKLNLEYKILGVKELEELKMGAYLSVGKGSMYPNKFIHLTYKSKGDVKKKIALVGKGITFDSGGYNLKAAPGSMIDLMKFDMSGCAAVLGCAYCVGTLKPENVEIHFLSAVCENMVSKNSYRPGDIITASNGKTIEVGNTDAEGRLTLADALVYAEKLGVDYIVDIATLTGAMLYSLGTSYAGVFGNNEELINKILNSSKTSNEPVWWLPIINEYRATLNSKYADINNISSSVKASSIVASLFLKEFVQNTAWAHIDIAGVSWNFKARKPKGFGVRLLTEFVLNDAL
# [10] = molecular target: Cytochrome P450 2C19 (Homo sapiens, UniProt P33261); test: Cytochrome panel assay with activity outcomes. Panel member name: p450-cyp2c19 Compounds with AC50 equal or less than 10 uM are considered active; type: functional; conditions: read-out: AC50
# Cytochrome P450 2C19, sequence (P33261 whole entry): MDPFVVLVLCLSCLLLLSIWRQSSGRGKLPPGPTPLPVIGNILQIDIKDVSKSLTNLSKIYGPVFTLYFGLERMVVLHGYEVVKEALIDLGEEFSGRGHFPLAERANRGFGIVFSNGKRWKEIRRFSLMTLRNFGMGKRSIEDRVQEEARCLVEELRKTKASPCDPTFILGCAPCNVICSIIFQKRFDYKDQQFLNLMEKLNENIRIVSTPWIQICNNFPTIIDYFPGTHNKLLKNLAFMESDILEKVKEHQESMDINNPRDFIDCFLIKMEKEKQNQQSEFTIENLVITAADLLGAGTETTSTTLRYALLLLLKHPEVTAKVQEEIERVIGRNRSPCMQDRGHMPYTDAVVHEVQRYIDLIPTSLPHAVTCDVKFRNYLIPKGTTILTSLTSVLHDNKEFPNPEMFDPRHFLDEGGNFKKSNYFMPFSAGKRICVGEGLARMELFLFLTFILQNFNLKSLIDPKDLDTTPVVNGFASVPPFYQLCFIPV
# [11] = molecular target: T4, Mitochondrial peptide methionine sulfoxide reductase (Bos taurus, UniProt P54149); test: Absorbance-based biochemical high throughput dose response assay for activators of Methionine sulfoxide reductase A (MsrA).; type: functional
# T4 sequence (P54149 whole entry): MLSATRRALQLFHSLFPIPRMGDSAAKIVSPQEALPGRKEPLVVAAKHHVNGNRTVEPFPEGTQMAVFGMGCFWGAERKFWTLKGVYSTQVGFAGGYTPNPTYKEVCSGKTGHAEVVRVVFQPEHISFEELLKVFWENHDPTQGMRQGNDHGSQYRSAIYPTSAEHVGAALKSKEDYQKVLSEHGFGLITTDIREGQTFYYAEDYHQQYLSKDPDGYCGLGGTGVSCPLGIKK
# [12] = molecular target: Cytochrome P450 2C9 (Homo sapiens, UniProt P11712)
# Cytochrome P450 2C9, sequence (P11712 whole entry): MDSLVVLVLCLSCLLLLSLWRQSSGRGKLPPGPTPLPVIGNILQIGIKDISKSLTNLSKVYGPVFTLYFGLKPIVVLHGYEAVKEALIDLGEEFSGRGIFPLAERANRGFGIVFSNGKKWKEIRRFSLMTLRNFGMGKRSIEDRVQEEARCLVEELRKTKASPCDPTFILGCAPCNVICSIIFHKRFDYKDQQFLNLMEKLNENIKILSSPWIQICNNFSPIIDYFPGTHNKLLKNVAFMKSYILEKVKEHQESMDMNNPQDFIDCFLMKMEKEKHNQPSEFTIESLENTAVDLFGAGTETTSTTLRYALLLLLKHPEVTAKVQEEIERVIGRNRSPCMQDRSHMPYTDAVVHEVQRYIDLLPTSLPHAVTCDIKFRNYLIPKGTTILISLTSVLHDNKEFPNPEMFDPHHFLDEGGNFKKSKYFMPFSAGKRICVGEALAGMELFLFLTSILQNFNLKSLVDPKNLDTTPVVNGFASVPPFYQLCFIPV
# [13] = molecular target: T5, Sentrin-specific protease 8 (Homo sapiens, UniProt Q96LD8); test: SENP8 protease inhibitors, SAR follow-up, biochemical, luminescence (AID 504501); type: functional
# T5 sequence (Q96LD8 whole entry): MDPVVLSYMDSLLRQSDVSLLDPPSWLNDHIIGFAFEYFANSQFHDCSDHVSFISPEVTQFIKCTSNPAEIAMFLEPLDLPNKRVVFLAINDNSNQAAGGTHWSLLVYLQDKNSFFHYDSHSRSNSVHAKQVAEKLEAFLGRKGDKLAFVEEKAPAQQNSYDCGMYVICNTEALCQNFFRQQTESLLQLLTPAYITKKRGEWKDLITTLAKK
# [14] = molecular target: T6, Caspase-3 (Homo sapiens, UniProt P42574); test: SAR Analysis of small molecule inhibitors of Sentrin-specific proteases (SENPs) using a Caspase-3 Selectivity assay. [Related pubchem assays (depositor defined):AID2540, AID2599, AID434973, AID489001]; type: functional
# T6 sequence (P42574 whole entry): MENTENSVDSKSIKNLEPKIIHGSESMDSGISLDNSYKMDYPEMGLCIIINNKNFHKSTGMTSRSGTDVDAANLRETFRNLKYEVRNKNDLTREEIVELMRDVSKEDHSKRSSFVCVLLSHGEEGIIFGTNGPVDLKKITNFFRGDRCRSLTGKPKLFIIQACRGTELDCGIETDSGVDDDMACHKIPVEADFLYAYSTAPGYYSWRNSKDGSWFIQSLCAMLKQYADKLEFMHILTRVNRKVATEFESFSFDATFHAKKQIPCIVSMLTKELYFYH
# [15] = molecular target: T7, Sentrin-specific protease 6 (Homo sapiens, UniProt Q9GZR1); test: SAR Analysis of small molecule inhibitors of Sentrin-specific protease 6 (SENP6) using a Luminescent assay. [Related pubchem assays (depositor defined):AID2582, AID2599]; type: functional
# T7 sequence (Q9GZR1 whole entry): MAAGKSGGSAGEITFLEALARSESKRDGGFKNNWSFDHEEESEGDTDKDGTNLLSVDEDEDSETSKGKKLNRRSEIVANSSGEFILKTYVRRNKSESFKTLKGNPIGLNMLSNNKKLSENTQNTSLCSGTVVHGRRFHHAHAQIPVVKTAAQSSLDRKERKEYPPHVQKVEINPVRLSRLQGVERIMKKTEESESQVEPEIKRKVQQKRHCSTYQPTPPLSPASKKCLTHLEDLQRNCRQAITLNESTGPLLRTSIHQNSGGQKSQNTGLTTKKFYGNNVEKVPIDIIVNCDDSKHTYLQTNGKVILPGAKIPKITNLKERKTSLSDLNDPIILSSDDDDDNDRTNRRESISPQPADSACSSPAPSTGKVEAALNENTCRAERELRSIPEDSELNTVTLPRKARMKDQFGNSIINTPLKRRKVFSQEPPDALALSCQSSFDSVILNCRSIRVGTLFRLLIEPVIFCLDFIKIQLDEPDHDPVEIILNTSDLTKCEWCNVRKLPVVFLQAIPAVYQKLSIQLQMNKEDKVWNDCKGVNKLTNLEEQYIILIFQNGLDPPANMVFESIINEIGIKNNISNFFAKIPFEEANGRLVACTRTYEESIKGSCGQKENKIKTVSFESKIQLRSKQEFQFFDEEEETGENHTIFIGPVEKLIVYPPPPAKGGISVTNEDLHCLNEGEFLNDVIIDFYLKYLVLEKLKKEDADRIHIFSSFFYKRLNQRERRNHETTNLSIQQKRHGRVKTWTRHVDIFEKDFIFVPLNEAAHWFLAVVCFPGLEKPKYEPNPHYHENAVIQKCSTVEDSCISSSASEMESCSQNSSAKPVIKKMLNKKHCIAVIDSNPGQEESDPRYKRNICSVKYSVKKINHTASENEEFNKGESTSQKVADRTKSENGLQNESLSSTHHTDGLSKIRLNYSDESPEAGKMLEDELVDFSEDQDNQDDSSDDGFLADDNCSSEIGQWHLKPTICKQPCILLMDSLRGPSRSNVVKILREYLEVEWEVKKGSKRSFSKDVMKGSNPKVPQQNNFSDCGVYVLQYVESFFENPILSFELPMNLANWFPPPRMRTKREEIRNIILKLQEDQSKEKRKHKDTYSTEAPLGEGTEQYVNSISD
# [16] = molecular target: T8, Sentrin-specific protease 7 (Homo sapiens, UniProt Q9BQF6); test: SENP7 protease inhibitors, SAR follow-up, biochemical, luminescence (AID 504497); type: functional
# T8 sequence (Q9BQF6 whole entry): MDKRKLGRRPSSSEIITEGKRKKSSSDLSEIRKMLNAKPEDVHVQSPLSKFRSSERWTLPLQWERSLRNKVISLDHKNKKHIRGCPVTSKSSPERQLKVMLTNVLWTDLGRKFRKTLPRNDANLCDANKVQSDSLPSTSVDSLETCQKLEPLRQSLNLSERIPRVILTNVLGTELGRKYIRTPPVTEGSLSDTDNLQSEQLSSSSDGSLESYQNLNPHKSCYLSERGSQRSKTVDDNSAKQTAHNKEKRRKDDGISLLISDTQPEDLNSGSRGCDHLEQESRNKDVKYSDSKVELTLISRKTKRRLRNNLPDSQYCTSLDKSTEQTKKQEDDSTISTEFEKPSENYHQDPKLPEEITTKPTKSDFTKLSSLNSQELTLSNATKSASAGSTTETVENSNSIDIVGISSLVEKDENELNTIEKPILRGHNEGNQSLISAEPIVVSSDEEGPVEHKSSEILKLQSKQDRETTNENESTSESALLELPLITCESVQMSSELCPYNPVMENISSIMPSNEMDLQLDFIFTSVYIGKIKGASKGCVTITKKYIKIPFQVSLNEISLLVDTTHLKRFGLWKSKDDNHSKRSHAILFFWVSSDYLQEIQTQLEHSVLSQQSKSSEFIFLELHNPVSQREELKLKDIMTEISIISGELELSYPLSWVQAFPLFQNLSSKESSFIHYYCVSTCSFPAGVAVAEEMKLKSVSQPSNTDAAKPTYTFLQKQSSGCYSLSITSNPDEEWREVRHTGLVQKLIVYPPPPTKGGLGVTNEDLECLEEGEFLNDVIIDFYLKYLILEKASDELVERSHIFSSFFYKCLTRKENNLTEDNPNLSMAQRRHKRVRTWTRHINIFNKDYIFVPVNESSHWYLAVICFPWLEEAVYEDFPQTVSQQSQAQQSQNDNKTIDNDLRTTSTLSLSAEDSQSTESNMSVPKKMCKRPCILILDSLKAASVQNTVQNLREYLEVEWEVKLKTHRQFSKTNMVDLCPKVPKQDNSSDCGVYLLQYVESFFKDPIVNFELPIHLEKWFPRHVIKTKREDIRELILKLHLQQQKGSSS
smiles,measurement,setting,value
O=C(NC(c1ccc(Cl)cc1)c1ccccn1)C1CCN(CCOc2ccc(Cl)cc2Cl)CC1 (stereo unspecified),EC50,[1],> 89.2 µM (inactive)
COP(=O)(OC)SCn1c(=O)oc2cc(Cl)cnc21 [AZAMETHIPHOS],AC50,[2],44.7 µM (inconclusive)
COc1cc2nc(Nc3ccc(C)c(C)c3)nc(N)c2cc1OC,EC50,[3],0.559 µM (active)
same,EC50,[4],> 30 µM (not active)
same,CC50,[5],14.8 µM (active)
same,AC50,[6],89.2 µM (active)
same,AC50,[7],74.1 µM (active)
same,AC50,[8],5.47 µM (active)
Sc1nc2cc(Cl)ccc2s1,IC50,[9],14.8 µM (active)
same,AC50,[10],11.2 µM (inconclusive)
same,EC50,[11],> 104 µM (inactive)
same,AC50,[12],39.8 µM (inconclusive)
Cc1ccc(C)c2nc3sc(C(=O)N4CCOCC4)c(N)c3cc12,EC50,[11],> 104 µM (inactive)
CS(=O)(=O)c1ccc(N/N=C/c2c[nH]c3ccccc23)cc1,IC50,[13],> 99 µM (inactive)
same,IC50,[14],> 99 µM (inactive)
same,IC50,[15],> 99 µM (inactive)
same,IC50,[16],> 99 µM (inactive)
COc1ccc(C(=O)Nc2ccc3ccccc3c2)cc1Br,IC50,[13],> 99 µM (inactive)
same,IC50,[14],> 99 µM (inactive)
same,IC50,[15],> 99 µM (inactive)
same,IC50,[16],> 99 µM (inactive)
